# Like-named read-outs stand apart in the source and are kept apart here.
# Legend:
# γ-secretase complex = γ-secretase complex (Homo sapiens, UniProt P49768); assay: APP-C99 counter assay (GSI reporter assay); type: cell-based; set-up: AUC APP: scale not given here; conditions: for Hill-slope / curve fit information: 14p APP assay DR, bottom constrained to Emax of positive control LY-411575; for AUC APP: area under the 14-point dose-response curve, replicates averaged; for remaining activity at 10 µM / remaining activity at 25 µM / remaining activity at […]: 24 h, APP-C99 counter assay, read-out: 3p-DR in % of DMSO counter; for remaining activity at […]: 1,25µM
# Method: To this end, we used a previously established reporter gene-based GSI assay (APP-C99) (Fig. 3A), which measures γ-secretase activity through cleavage of amyloid precursor protein (APP), another protein processed by the γ-secretase complex[24]
# Plasmids for APP and luciferase are described in[24] and the renilla plasmid described above generated for this project was used to normalize firefly values. 24 h post transfection cells were seeded on compound plates and cells were cultivated for 24 h before luciferase signals were read, as described.
# Two-fold concentrations of compounds were diluted in 10 µl cell culture medium and brought to one-fold by seeding 10 µl containing 4000 cells of the respective cell type on each well of a 384-well plate, as described above. Analogous to the previous assays, all plates contained one DMSO and DAPT control column with the Notch reporter cell line (#A1-11) and a DMSO only and Notch inhibitor control plate was read before the measuring the screening plates. In addition, DAPT and DMSO were spotted in a dose response fashion, and a minimum of four replicates were read. Dose-responses of compounds were recorded in triplicates for each concentration reading out the dual luciferase reporters, as described above. Dose response assays were read together in one session. To measure compound effects, the different assays dose–response curves were fitted using the log(inhibitor) vs. response – Variable slope (model: Y = Bottom + (Top–Bottom)/(1 + 10^((LogIC50-X)*HillSlope)) equation.
# A DMSO plate was read before measuring luciferase activity of compound spotted plates. APP firefly luciferase reporter assays were read with a signal integration time of 0.1 s, instead of 0.5 s used for the Notch reporter to reduce signal overlap between wells. […] The area-under-the-curve (AUC) was calculated on dose–response curves using Graphpad Prism.
# Notch signalling = assay: Notch reporter assay (12xCSL firefly luciferase / renilla luciferase, HEK293T Notch1ΔE reporter cell line clone #A1-11); type: cell-based; set-up: AUC Notch: scale not given here; conditions: for Bottom (Emax): Emax indicated independent from assay constraints, in % (unit assumed); for IC50 / activity at 10 µM / activity at 25 µM / activity: Homo sapiens, HEK-293T; for AUC Notch: area under the 14-point dose-response curve, replicates averaged; for activity: 1,25µM
# From the text: To identify novel Notch inhibitors in an unbiased manner, we generated a novel Notch reporter construct, which records the level of Notch signalling immediately downstream of receptor activation rather than further downstream in the signalling cascade, for example at the level of Hes and Hey proteins (Fig. 1B). […] The reporter construct carries piggy-bac sequences at both ends of the promoter-reporter cassette as well as cSH4 insulator elements to reduce transcriptional noise[21] and was transfected into HEK293T cells. To achieve a robust level of Notch receptor activity in the HEK293T reporter cell line and to confine the search for inhibitors to compounds affecting the receptor function and eliminating the need for ligand activation, a truncated ligand-independent version of the Notch1 receptor, mimicking an S2-cleaved Notch1 receptor (Notch1ΔE) and spontaneously activated by S3-cleavage[22] (Fig. 1C) was introduced into the cell line carrying the reporter construct (Fig. 1D). In addition, an HSV-TK-renilla luciferase plasmid was introduced into the cell line as an internal control for normalisation of the reporter expression (Fig. 1D).
# A de novo Notch reporter construct, composed of six dimeric CSL binding sites linked to a basic b-globin promoter and followed by a firefly luciferase gene and a PEST degradation domain was synthesised (GeneArt). The construct was stably introduced into HEK293T cells, and zeocin (0.1 mg/ml) or Puromycin (0.05 mg/ml (ThermoFisher, cat #R25001, #A1113803) were used as selection markers. A clonal cell line (clone #A1) with robust renilla expression and enhanced firefly luciferase expression upon transient transfection of Notch1 ICD or Notch1ΔE constructs was selected, and a UB6 promoter-Notch1DE construct was stably introduced into this cell line using Blasticidin (0.1 mg/ml; ThermoFisher, cat #A1113903) as a selection marker. Stable cell lines were generated by serial dilution and only clonal colonies were selected for further evaluation. To measure luciferase reporter activity, cells were washed in cold PBS, detached, and collected in pre-warmed cell culture medium and centrifugated for five min at 200xg. The cell pellet was resuspended in medium, cells were counted, and 4,000 cells were seeded in each well of a white 384 well plate (Corning #3670) in 20 µl medium containing either DMSO or the GSI DAPT (N-[N-(3,5-Difluorophenacetyl)-L-alanyl]-S-phenylglycine t-butyl ester, Sigma-Aldrich, cat #565784-M) and incubated for 24 h. The efficacy of the reporter gene system was determined by monitoring the level of luciferase activation in the absence or presence of different amounts of DAPT in several cell clones. Luciferase activity was assessed using the dual-GLO luciferase detection kit from Promega (cat # E2920), following the manufacturer’s instructions. A minimum of two technical replicates were measured per clone using a SpectraMaxi3 plate reader (Molecular Devices). Reporter activity of different clones and in response to DAPT was assessed by normalising firefly (Notch activity) to renilla luciferase signals. Normalised signals of individual clones cultivated in DMSO were then compared to corresponding signals generated with DAPT-treated cells. The cell clone with the strongest signal to control ratio (DMSO to DAPT) was then selected for further exploration (clone #A1-11).
# 37,966 compounds were spotted by the compound center at SciLifeLab (https://www.scilifelab.se/) on a total of 120 plates (Greiner #781080) at a fixed concentration of 10 µM and the screening process spanned five consecutive sessions. The layout of each plate contained one column for DMSO and one for DAPT controls to determine the quality and reliability of the data. DAPT controls were spotted at 10 µM and DMSO was spotted in an equimolar volume. In addition, plates spotted with only DMSO were utilized to investigate the impact of plate effects before and after each session. […]
# [1] = 14p Notch assay DR, bottom constrained to Emax of positive control DAPT, read-out: approximated IC50
# [2] = 14p Notch assay DR, log10 value, bottom constrained to Emax of positive control DAPT, read-out: approximated LogIC50 (converted)
# [3] = 10 µM, primary screen, 24 h, unit from Fig. 2 legend, read-out: Primary screen at 10 µM (Notch reporter signal)
# [4] = 10 µM, three-dose confirmation screen, unit from Fig. 2 legend, read-out: Hit confirmation at 10 µM (Notch reporter signal)
# [5] = 10µM, 3-point DR confirmation screen, Notch reporter assay, read-out: inhibitor ratio in % of DMSO in 3 point DR
# [6] = 10 µM, sheet conf vs counter 10 µM, same values as 3-point DR confirmation screen, read-out: Confirmation screen
# [7] = 25µM, 3-point DR confirmation screen, Notch reporter assay, read-out: inhibitor ratio in % of DMSO in 3 point DR
# [8] = 25 µM, Notch reporter 3-point dose-confirmation assay, sheet "conf vs counter 25 µM", read-out: Confirmation screen
# [9] = 3-point DR confirmation screen, Notch reporter assay, read-out: inhibitor ratio in % of DMSO in 3 point DR
SMILES,Hill-slope (γ-secretase complex),AUC APP (γ-secretase complex),Bottom (Emax) (Notch signalling; 14p Notch assay DR),AUC Notch (Notch signalling),other results
Fc1ccc2[nH]c3c(c2c1)CCOC31CCN(Cc2ccccc2-c2ccccc2)CC1 [CBK039913],0.0284,726.2,44.4,588.0,IC50 (Notch signalling; [1]): 1.2 µM; IC50 (Notch signalling; [2]): 1.26 µM
Cc1c(C(C)NC(=O)c2[nH]c3ccccc3c2Cl)cnn1C (centres unmarked) [CBK246640],0.0225,737.0,91.1,612.0,"approximated IC50, Notch reporter assay (Notch signalling; 14-point dose-response, Fig. 4): Indeterminate"
Cc1ccc(-c2noc([C@@H]3Cc4[nH]cnc4CN3C(=O)CCC(=O)O)n2)cc1 [CBK288958],-0.00263,662.9,57.4,600.0,remaining activity at 10 µM (γ-secretase complex): 115%; remaining activity at 25 µM (γ-secretase complex): 129%; remaining activity at […] (γ-secretase complex): 119%; IC50 (Notch signalling; [1]): 3.2 µM; IC50 (Notch signalling; [2]): 3.16 µM; activity at 10 µM (Notch signalling; [3]): 50.2%; activity at 10 µM (Notch signalling; [4]): 49.6%; activity at 10 µM (Notch signalling; [5]): 49.6%; activity at 10 µM (Notch signalling; [6]): 49.6%; activity at 25 µM (Notch signalling; [7]): 32.2%; activity at 25 µM (Notch signalling; [8]): 32.2%; activity (Notch signalling; [9]): 87.5%
Cc1ccccc1CN1CCC2(CC1)OCCc1c2[nH]c2ccc(Br)cc12 [CBK040353],0.0279,724.9,48.2,584.0,"IC50 (Notch signalling; 14-point dose-response, Fig. 4, read-out: approximated IC50, Notch reporter assay): 1.8 µM; IC50 (Notch signalling; [1]): 1.7 µM; IC50 (Notch signalling; [2]): 1.58 µM"
COc1cc(Nc2nc(-c3cccc(NC(C)=O)c3)cn3ccnc23)cc(OC)c1OC [CBK038093],0.0389,493.6,21.1,304.0,remaining activity at 10 µM (γ-secretase complex): 180%; remaining activity at 25 µM (γ-secretase complex): 242%; remaining activity at […] (γ-secretase complex): 132%; IC50 (Notch signalling; [1]): 5.6 µM; IC50 (Notch signalling; [2]): 5.01 µM; activity at 10 µM (Notch signalling; [3]): 46.2%; activity at 10 µM (Notch signalling; [4]): 56.1%; activity at 10 µM (Notch signalling; [5]): 56.1%; activity at 10 µM (Notch signalling; [6]): 56.1%; activity at 25 µM (Notch signalling; [7]): 41.5%; activity at 25 µM (Notch signalling; [8]): 41.5%; activity (Notch signalling; [9]): 96.6%
CC(=O)N1CCc2sccc2C1c1ccccc1NC(=O)c1ccco1 (centres unmarked) [CBK286436],,642.7,99.7,629.0,curve fit information (γ-secretase complex): IC50 indeterminate
COc1cc(Nc2nc(-c3cccc(Cl)c3)cn3ccnc23)cc(OC)c1OC [CBK066271],-16.9,485.9,87.7,348.0,
COc1ccc(-c2cn3ccnc3c(Nc3ccccc3)n2)cc1 [CBK066257],-3.32e-11,515.8,91.1,403.0,curve fit information (γ-secretase complex): IC50 indeterminate
CC(=O)Nc1cccc(-c2cn3ccnc3c(Nc3ccc(N4CCOCC4)cc3)n2)c1 [CBK066362],0.3,828.0,95.3,529.0,
COc1ccc(C(=O)N2Cc3nc[nH]c3C[C@H]2c2nc(-c3ccc(OC)cc3)no2)cc1 [CBK288966],-6.4,443.8,57.5,299.0,remaining activity at 10 µM (γ-secretase complex): 120%; remaining activity at 25 µM (γ-secretase complex): 78.7%; remaining activity at […] (γ-secretase complex): 112%; IC50 (Notch signalling; [1]): 5.4 µM; IC50 (Notch signalling; [2]): 5.01 µM; activity at 10 µM (Notch signalling; [3]): 57.1%; activity at 10 µM (Notch signalling; [4]): 58.5%; activity at 10 µM (Notch signalling; [5]): 58.5%; activity at 10 µM (Notch signalling; [6]): 58.5%; activity at 25 µM (Notch signalling; [7]): 61.1%; activity at 25 µM (Notch signalling; [8]): 61.1%; activity (Notch signalling; [9]): 83.6%
COc1ccc2cc(C(=O)N3Cc4cn(CCO)nc4C3)n(C)c2c1 [CBK306707],0.423,,,,
COc1cc(Nc2nc(-c3ccccc3)cn3ccnc23)cc(OC)c1OC [CBK066345],0.0472,,,,
O=C(O)c1cc(Cl)c(Cl)cc1C(=O)N1CCC2(CC1)OCCc1c2[nH]c2ccccc12 [CBK047019],-0.0304,,,,
COc1ccc2[nH]c3c(c2c1)CCOC31CCN(C(=O)c2ccccc2C(=O)O)CC1 [CBK047213],-8.4,,,,
"O=C(O)c1cccc(-c2noc(-c3ccccc3F)n2)c1 [PTC-124, reference compound]",,,,,"signal reduced by (Notch signalling; luciferase inhibitor controls in three-dose regimen (1.25, 10 and 25 µM), Supplemental Fig. 2G): 83%"
COc1ccc2[nH]c3c(c2c1)CCOC31CCN(C(=O)c2cccc3cccc(C(=O)O)c23)CC1 [CBK047020],20.5,,,,
CC(c1nc(N)nc(Nc2ccccc2)n1)N1CCC(NC(=O)c2ccccc2)CC1 (centres unmarked) [CBK233672],0.274,,,,
CCn1ccc(CN(CCOC)C(=O)c2cc3c(Cl)cccc3[nH]2)n1 [CBK306903],3.84e-13,,,,curve fit information (γ-secretase complex): IC50 indeterminate
O=C(O)c1cccc2cccc(C(=O)N3CCC4(CC3)OCCc3c4[nH]c4ccccc34)c12 [CBK047027],-0.9,,,,
COc1ccc(-c2cn3ccnc3c(Nc3cc(OC)c(OC)c(OC)c3)n2)cc1OC [CBK066261],0.0544,,,,
O=C(O)c1ccccc1C(=O)N1CCC2(CC1)OCCc1c2[nH]c2ccccc12 [CBK046981],-0.0365,,,,
